Results: the supplement of paper PMC12613149
Structures can show the parent of a compound that is named as a salt.

How the values were obtained:
[1] = collision cross section (TIMS, N2 drift gas) of the primary ion; higher = larger gas-phase ion size
[2] = reversed-phase LC retention time (C18, 15 min MeOH gradient); higher = more hydrophobic / later elution
[3] = ionization mode: ESI+, ion species: [M+H]+
[4] = ionization mode: ESI-, ion species: [M-H]-
[5] = ionization mode: ESI+, ion species: [M]+

SMILES | collision cross section [1, 3] [Å²] | reversed-phase LC retention time [2, 3] [min] | collision cross section [1, 4] [Å²] | reversed-phase LC retention time [2, 4] [min] | collision cross section [1, 5] [Å²] | reversed-phase LC retention time [2, 5] [min]
Nc1ccc2nc3ccc(N)cc3nc2c1 [2,8-Diaminophenazine] | 143.53 | 8.22 |  |  |  | 
O=C1Nc2ccc(Cl)cc2C(C#CC2CC2)(C(F)(F)F)O1 (stereo not drawn) [Efavirenz] | 168.93 | 15.4 | 167.59 | 15.8 |  | 
O=C(O)CCCCCCCC(=O)O [Azelaic acid] |  |  | 138.44 | 0.98 |  | 
CN/C(=N\[N+](=O)[O-])NCc1cnc(Cl)s1 [Clothianidin] | 153.61 | 8.59 | 150.63 | 8.62 |  | 
N#Cc1c(O)c(Cl)c(Cl)c(C#N)c1Cl [Chlorothalonil-4-hydroxy] |  |  | 135.03 | 11.8 |  | 
CCCCOP(=O)(O)OCCCC [Di-n-butyl phosphate] |  |  | 151.01 | 11.6 |  | 
CCCOC(=O)NCCCN(C)C [Propamocarb] | 142.68 | 6.24 |  |  |  | 
CC[C@H]1OC(=O)C[C@@H](O)[C@H](C)[C@@H](O[C@@H]2O[C@H](C)[C@@H](O[C@H]3C[C@@](C)(O)[C@@H](O)[C@H](C)O3)[C@H](N(C)C)[C@H]2O)[C@@H](CC=O)C[C@@H](C)C(=O)/C=C/C(C)=C/[C@@H]1CO[C@@H]1O[C@H](C)[C@@H](O)[C@@H](OC)[C@H]1OC [Tylosin] | 282.55 | 13 | 293.81 | 15.6 |  | 
CO/C=C(/C(=O)O)c1ccccc1Oc1cc(Oc2ccccc2C#N)ncn1 [Azoxystrobin acid] | 190.75 | 13 | 188.36 | 11.5 |  | 
CCNc1nc(Cl)nc(NC(C)C)n1 [Atrazine] | 148.84 | 12.8 |  |  |  | 
Cc1nc2n(c(=O)c1CCN1CCC(c3noc4cc(F)ccc34)CC1)CCCC2 [Risperidone] | 205.9 | 10.4 |  |  |  | 
Cc1nnc(-c2ccccc2)c(=O)n1N [Metamitron] | 143.85 | 8.87 |  |  |  | 
NC(N)=NC(=O)c1nc(Cl)c(N)nc1N [Amiloride] | 149.53 | 6.27 |  |  |  | 
CCC[C@@H]1C[C@@H](C(=O)N[C@@H]([C@H]2O[C@H](SC)[C@H](O)[C@@H](O)[C@H]2O)[C@@H](C)O)N(C)C1 [Lincomycin] | 202.11 | 7.84 | 197.99 | 13.2 |  | 
C[C@@H]1NC(C)(C)CO[C@@]1(O)c1cccc(Cl)c1 [(S,S)-Hydroxybupropion] | 159.75 | 9.89 | 159.63 | 13.5 |  | 
Cc1ccc(OS(=O)(=O)[O-])cc1 [p-Tolyl Sulfate] |  |  | 135.45 | 7.34 |  | 
O=C1CCCCCCCCCCCN1 [Dodecane-12-lactam] | 148.39 | 13.9 |  |  |  | 
COC(=O)[C@H](C)N(C(=O)Cc1ccccc1)c1c(C)cccc1C [Benalaxyl] | 173.08 | 15.6 |  |  |  | 
CC(C)OC(=O)CCCCCCCCC(=O)OC(C)C [Diisopropyl sebacate] | 172.78 | 17 |  |  |  | 
CCCCc1oc2ccccc2c1C(=O)c1cc(I)c(OCCN(CC)CC)c(I)c1 [Amiodarone] | 228.68 | 16.5 |  |  |  | 
CC(C1CC1)C(O)(Cn1cncn1)c1ccc(Cl)cc1 (stereo not drawn) [Cyproconazole_2] | 170.04 | 14.6 |  |  |  | 

SMILES | collision cross section [1, 3] [Å²] | reversed-phase LC retention time [2, 3] [min] | collision cross section [1, 4] [Å²] | reversed-phase LC retention time [2, 4] [min] | collision cross section [1, 5] [Å²] | reversed-phase LC retention time [2, 5] [min]
N#C/N=C1/SCCN1Cc1ccc(Cl)nc1 [Thiacloprid] | 158.43 | 9.94 | 153.51 | 10 |  | 
COc1cc2ccc(=O)oc2cc1O [Scopoletin] |  |  | 133.5 | 7.44 |  | 
O=P(Oc1ccccc1)(Oc1ccccc1)Oc1ccccc1 [Triphenylphosphate] | 172.48 | 15.7 |  |  |  | 
CC1(C)[C@@H](O[C@H]2O[C@H](C(=O)O)[C@@H](O)[C@H](O)[C@H]2O[C@@H]2O[C@H](C(=O)O)[C@@H](O)[C@H](O)[C@H]2O)CC[C@]2(C)[C@H]3C(=O)C=C4[C@@H]5C[C@@](C)(C(=O)O)CC[C@]5(C)CC[C@@]4(C)[C@]3(C)CC[C@@H]12 [Glycyrrhizic acid] |  |  | 282.7 | 11.8 |  | 
O=C(O)C(F)(F)C(F)(F)C(F)(F)C(F)(F)C(F)(F)C(F)(F)C(F)(F)C(F)(F)C(F)(F)C(F)(F)C(F)(F)C(F)(F)C(F)(F)F [Perfluorotetradecanoic acid] |  |  | 209.23 | 17.6 |  | 
CN(Cc1cnc2nc(N)nc(N)c2n1)c1ccc(C(=O)N[C@@H](CCC(=O)O)C(=O)O)cc1 [Methotrexate] | 197.21 | 7.82 |  |  |  | 
COc1cc(Cc2cnc(N)nc2N)cc(OC)c1OC [Trimethoprim] | 173.75 | 7.8 |  |  |  | 
CN(C)C(=O)C(CCN1CCC(O)(c2ccc(Cl)cc2)CC1)(c1ccccc1)c1ccccc1 [Loperamide] | 221.69 | 13.6 |  |  |  | 
Cc1c(Cl)cccc1Nc1ccccc1C(=O)O [Tolfenamic acid] | 156.85 | 16.6 | 158.38 | 14.2 |  | 
CCOCCN(C(=O)CCl)C(=C(C)C)c1ccccc1 [Pethoxamid] | 166.72 | 14.9 |  |  |  | 
CCC(C)(C)C(=O)OC1=C(c2ccc(Cl)cc2Cl)C(=O)OC12CCCCC2 [Spirodiclofen] | 193.38 | 11.5 |  |  |  | 
O=P(OC(CCl)CCl)(OC(CCl)CCl)OC(CCl)CCl [TDCPP] | 177.62 | 15.5 |  |  |  | 
O=c1c2ccccc2[nH]c2ccccc12 [Acridone] | 136.53 | 11.1 |  |  |  | 
CCCCCCCCCCCCCCCC[n+]1ccccc1 [Hexadecylpyridinium] |  |  |  |  | 197.5 | 17.5
CCCCCCCCCCCC(=O)NCCC[N+](C)(C)CC(=O)O [Lauramidopropylbetaine] |  |  |  |  | 200.11 | 15.9
CCC(Cc1ccccc1)(C(=O)c1ccc(N2CCOCC2)cc1)N(C)C (stereo not drawn) [Irgacure 369] | 196.72 | 11.3 |  |  |  | 
NS(=O)(=O)c1cc2c(cc1Cl)NCNS2(=O)=O [Hydrochlorothiazide] |  |  | 152.66 | 4.93 |  | 
C#CCN1C(=O)COc2cc(F)c(N3C(=O)C4=C(CCCC4)C3=O)cc21 [Flumioxazin] | 188.98 | 13.5 |  |  |  | 
COCC(=O)N(c1c(C)cccc1C(=O)O)C(C)C(=O)O (stereo not drawn) |  |  | 159.84 | 5.43 |  | 
O=c1c(-c2ccc(O)cc2)coc2cc(O)cc(O)c12 [Genistein] | 160.2 | 11.9 | 159.59 | 10.2 |  | 
Cc1cccc(C)c1NC(=O)CS(=O)(=O)O | 152.57 | 7.36 | 149.99 | 7.04 |  | 

SMILES | collision cross section [1, 3] [Å²] | reversed-phase LC retention time [2, 3] [min] | collision cross section [1, 4] [Å²] | reversed-phase LC retention time [2, 4] [min] | collision cross section [1, 5] [Å²] | reversed-phase LC retention time [2, 5] [min]
CCCC1CC(C(=O)NC(C(C)Cl)C2OC(SC)C(O)C(O)C2O)N(C)C1 (stereo not drawn) [Clindamycin] | 203.51 | 11.5 | 200.27 | 16.1 |  | 
CCNC(=O)[C@@H](C)OC(=O)Nc1ccccc1 [Carbetamide] | 155.79 | 11 |  |  |  | 
CCCCC(=O)N(Cc1ccc(-c2ccccc2-c2nn[nH]n2)cc1)C(C(=O)O)C(C)C (stereo not drawn) [Valsartan] | 204.42 | 14.4 | 203.89 | 11.8 |  | 
COc1cc(C)c(C(=O)c2c(OC)ccc(Br)c2C)c(OC)c1OC [Metrafenone] | 184.27 | 15.9 |  |  |  | 
CC(=O)N(CC(O)CO)c1c(I)c(C(=O)NCC(O)CO)c(I)c(C(=O)NCC(O)CO)c1I (stereo not drawn) [Iohexol] | 226.32 | 5.4 | 220.12 | 5.47 |  | 
Cn1c(=O)c2c(ncn2C)n(C)c1=O [Caffeine] | 139.07 | 7.7 |  |  |  | 
O=c1c(-c2ccc(O)cc2)coc2cc(O)ccc12 [Daidzein] | 155.18 | 11.1 | 157.58 | 9.78 |  | 
COP(=S)(OC)Oc1ccc(SC)c(C)c1 [Fenthion] | 160.76 | 14.1 |  |  |  | 
COc1ccc(C(=O)c2ccccc2)c(O)c1 [Benzophenone-3] | 148.22 | 15.1 |  |  |  | 
Nc1nc(N)nc(NC2CC2)n1 [Cyromazine] | 134.76 | 3.4 |  |  |  | 
CCCN(CCOc1c(Cl)cc(Cl)cc1Cl)C(=O)NC=O | 174.76 | 15.7 |  |  |  | 
CCOC(=O)c1cn2nc(OP(=S)(OCC)OCC)cc2nc1C [Pyrazophos] | 187.33 | 15.8 |  |  |  | 
c1ccc2c(c1)[nH]c1ccncc12 [5-Carboline] | 132.8 | 7.64 | 129.23 | 11.6 |  | 
Oc1ccnc2ccccc12 [4-Hydroxyquinoline] | 124.53 | 6.72 | 122.52 | 6.7 |  | 
NC(=NCCCCCCN=C(N)N=C(N)Nc1ccc(Cl)cc1)N=C(N)Nc1ccc(Cl)cc1 [Chlorohexidine] | 224.29 | 12.4 |  |  |  | 
Nc1nc(=O)c2ncn(COCC(=O)O)c2[nH]1 [Carboxy-aciclovir] | 150.15 | 2.54 |  |  |  | 
CCN(CC)c1nc(=O)cc(C)[nH]1 [2-(Diethylamino)-6-methylpyrimidin-4-one] | 138.67 | 7.54 |  |  |  | 
NC(=O)C1(N2CCCCC2)CCN(CCCC(=O)c2ccc(F)cc2)CC1 [Pipamperone] | 194.74 | 9.13 |  |  |  | 
Cc1cnc2ccc3c(nc(N)n3C)c2n1 [2-Amino-3,8-dimethylimidazo-[4,5-f]quinoxaline (MeIQx)] | 147.79 | 7.67 | 147.68 | 9.09 |  | 
Nc1ccc2c(n1)[nH]c1ccccc12 [2-Amino-9H-pyrido[2,3-b]indole (AalphaC)] |  |  | 135.27 | 12 |  | 
